Laboratory results taken from ChEMBL document CHEMBL2331448, “Optimization of potent and selective dual mTORC1 and mTORC2 inhibitors: the discovery of AZD8055 and AZD2014” (Bioorg Med Chem Lett, 2013).
Values belong to the compound of their own block, whether it stands above or below them.

Legend:
[1] = Lipophilicity, log D of the compound; assay type: physicochemical; conditions: octanol/water
[2] = Clearance in human hepatocytes assessed per 10^6 cells; assay type: ADME, cell-based, Hepatocyte; conditions: read-out: CLH
MDR1 [3] = test: Apparent permeability from basolateral to apical side of MDCK2 cells expressing human MDR1 at 10 uM; assay type: ADME, cell-based, Canis lupus familiaris, MDCK-II; conditions: dog, MDCK-MDR1
MDR1 [4] = test: Apparent permeability from apical to basolateral side of MDCK2 cells expressing human MDR1 at 10 uM; assay type: ADME, cell-based, Canis lupus familiaris, MDCK-II; conditions: dog, MDCK-MDR1
[5] = Clearance in rat at 4 umol/kg, iv; assay type: ADME, organism-based; conditions: in vivo
[6] = Clearance in CD1 mouse at 10 umol/kg, iv; assay type: ADME, organism-based; conditions: in vivo
[7] = Oral bioavailability in CD1 mouse at 20 umol/kg; assay type: ADME, organism-based; conditions: in vivo
[8] = Oral bioavailability in rat; conditions: in vivo
[9] = Oral bioavailability in rat at 6 umol/kg; assay type: ADME, organism-based; conditions: in vivo
[10] = Clearance in rat at 1 umol/kg, iv; assay type: ADME, organism-based; conditions: in vivo

- logD [1]: > 4
SMILES: C[C@@H]1CN(c2nc(N3CCOC[C@@H]3C)c3ncc(-c4ccccc4)nc3n2)C[C@H](C)O1

- hepatocyte CLint [2]: 37.8 µL/min/1e6 cells
SMILES: COc1ccc(-c2ccc3c(N4CCOC[C@@H]4C)nc(N4CCOC[C@@H]4C)nc3n2)cc1C(C)O (some centres undefined)

- hepatocyte CLint [2]: 33.2 µL/min/1e6 cells
SMILES: COc1ccc(-c2ccc3c(N4CCOC[C@@H]4C)nc(N4CCOC[C@@H]4C)nc3n2)cc1C(N)=O

- hepatocyte CLint [2]: 14.3 µL/min/1e6 cells
SMILES: CNC(=O)c1cc(-c2ccc3c(N4CCOC[C@@H]4C)nc(N4CCOC[C@@H]4C)nc3n2)ccc1OC

- hepatocyte CLint [2]: 4.3 µL/min/1e6 cells
SMILES: COc1ccc(-c2ccc3c(N4CCOC[C@@H]4C)nc(N4CCOC[C@@H]4C)nc3n2)cc1C(=O)N(C)C

- hepatocyte CLint [2]: 14.9 µL/min/1e6 cells
SMILES: CNC(=O)c1cc(-c2ccc3c(N4CCOC[C@@H]4C)nc(N4CCOC[C@@H]4C)nc3n2)ccc1OC(F)F

- hepatocyte CLint [2]: 176 µL/min/1e6 cells
SMILES: C[C@H]1COCCN1c1nc(N2CCOC[C@@H]2C)c2ccc(-c3ccc4nc[nH]c(=O)c4c3)nc2n1

- hepatocyte CLint [2]: < 5.4 µL/min/1e6 cells
SMILES: C[C@H]1COCCN1c1nc(N2CCOC[C@@H]2C)c2ccc(-c3cccc(C(=O)NCCO)c3)nc2n1

- Papp B→A at 10 µM (MDR1 [3]): 16.6 ×10⁻⁶ cm/s
- Papp A→B at 10 µM (MDR1 [4]): 45.3 ×10⁻⁶ cm/s
SMILES: COc1ccc(-c2ccc3c(N4CCOCC4)nc(N4C[C@@H](C)O[C@@H](C)C4)nc3n2)cc1CNCCO

- logD [1]: 3.75
SMILES: C[C@@H]1CN(c2nc(N3CCOC[C@@H]3C)c3ccc(-c4ccccc4)nc3n2)C[C@H](C)O1

- clearance [5]: 36.6 mL/min/kg
- clearance [6]: 42.8 mL/min/kg
- bioavailability [7]: 81%
- hepatocyte CLint [2]: 36.4 µL/min/1e6 cells
- logD [1]: 3.23
- bioavailability [8]: 12%
SMILES: COc1ccc(-c2ccc3c(N4CCOC[C@@H]4C)nc(N4CCOC[C@@H]4C)nc3n2)cc1CO [AZD-8055]

- Papp B→A at 10 µM (MDR1 [3]): 15 ×10⁻⁶ cm/s
- Papp A→B at 10 µM (MDR1 [4]): 2.6 ×10⁻⁶ cm/s
- bioavailability [9]: 33%
- clearance [10]: 35.8 mL/min/kg
- clearance [6]: 3.1 mL/min/kg
- bioavailability [7]: 61%
SMILES: COc1ccc(-c2ccc3c(N4CCOCC4)nc(N4C[C@@H](C)O[C@@H](C)C4)nc3n2)cc1CO [Ku-0063794]

- clearance [5]: 12.6 mL/min/kg
- clearance [6]: 10.4 mL/min/kg
- bioavailability [7]: > 100%
- hepatocyte CLint [2]: < 4.2 µL/min/1e6 cells
- logD [1]: 3.16
- bioavailability [8]: 40%
SMILES: CNC(=O)c1cccc(-c2ccc3c(N4CCOC[C@@H]4C)nc(N4CCOC[C@@H]4C)nc3n2)c1 [VISTUSERTIB]
